Columns and labels:
ERRα [1] = molecular target: T1, ERRα (Homo sapiens, UniProt P11474); assay: ERRα degradation in MCF-7 cells; assay type: cell-based; set-up: endogenous in cells; host or cells: MCF-7 (ATCC); settings: MCF7, column A, read-out: ERRα Degradation Dmax (Estimated) MCF-7 cells
T1 sequence (P11474 1-423): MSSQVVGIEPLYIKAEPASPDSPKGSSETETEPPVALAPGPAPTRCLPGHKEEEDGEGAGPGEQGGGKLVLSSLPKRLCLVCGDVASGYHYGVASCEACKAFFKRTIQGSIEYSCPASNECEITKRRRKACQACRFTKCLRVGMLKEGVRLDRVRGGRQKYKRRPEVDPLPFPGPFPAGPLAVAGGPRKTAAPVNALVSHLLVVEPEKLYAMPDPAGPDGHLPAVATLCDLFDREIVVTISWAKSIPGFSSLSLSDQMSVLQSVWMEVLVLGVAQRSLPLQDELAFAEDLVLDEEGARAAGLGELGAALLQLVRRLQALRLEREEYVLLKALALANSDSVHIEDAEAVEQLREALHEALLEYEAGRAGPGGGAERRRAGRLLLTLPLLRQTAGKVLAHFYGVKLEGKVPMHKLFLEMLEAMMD
Protocol: Human MDA-MB-231 and MCF7 cells (purchased authenticated ATCC cell lines) were cultured in complete growth medium (Dulbecco's modified Eagle's medium (DMEM)/F12 supplemented with 10% FBS; Life Technologies) and grown at 37° C. with 5% CO2. THP-1 cells (ATCC) were cultured in RPMI 1640+10% FBS and were grown at 37° C. with 5% CO2. For cellular degradation of ERRα, MCF7 cells were seeded in a 24-well plate at 70% confluency, allowed to attach overnight, and incubated with the indicated compounds. For cellular degradation of RIPK2, 5×10^6 cells were incubated with the indicated compounds. When indicated, a 1-hour pretreatment with 1 μM epoxomicin was performed before the addition of compound. When indicated for washout studies, after PROTAC treatment, cells were washed repeatedly with PBS and incubated with complete medium for the indicated time before harvesting. The THP1 cell line has been authenticated using the Promega GenePrint10 kit to generate a STR Profile for comparison to the expected profile reported by ATCC. Cells were also routinely tested and negative for mycoplasma. Cell lines were routinely tested for mycoplasma contamination at Clongen (Gaithersburg, Md.).
Total protein concentrations of tissue homogenates and cell lysates were determined by Pierce BCA kit (Thermo Fisher). Homogenates or lysates were separated on 4-12% NuPAGE gels (Life Technologies) and transferred onto PVDF membranes (iBlot; Life Technologies). Membranes were blocked with 5% non-fat milk in TBST (0.1% Tween-20 in Tris-Buffered Saline) before overnight incubation with indicated antibodies. After incubation with the appropriate horseradish peroxidase-conjugated secondary antibodies, the bands were visualized by enhanced chemiluminescence (Pierce West Femto ECL). The intensity of the bands was quantified with Bio-Rad Quantity One software. When the IRDye secondary antibodies were used, the infrared signal was detected using an Odyssey scanner (Li-COR Biosciences) and the densitometry was performed using the Odyssey 2.1 Analyser software. The IRDye secondary antibodies anti-mouse (926-32212) and anti-mouse (926-68072) were purchased from Li-COR Biosciences and used at a 1:5,000 dilution. Statistical analysis of tissue densitometry levels were performed with GraphPad Prism software using the indicated statistical test.
(§1) Using the methods as described herein, the following exemplary PROTAC compounds were prepared (see Table below). The exemplary compounds were also assayed for their ability to effectuate the degration of ERRα in either MCF-7 cells or ST-486 cells. Thus, in certain embodiments, the description provides the compounds below, including compositions comprising effective amount of a compound as listed below or a derivative, analog, or a prodrug of the same, in combination with at least one of a pharmaceutically acceptable carrier, another active agent, including a second PROTAC molecule as described herein or a combination thereof. In additional embodiments, the disclosure provides a method of treating a disease or condition in a subject in need thereof, comprising administering a composition comprising an effective amount of a compound listed below, wherein the composition is effective for treating or ameliorating a symptom of the disease or condition.
(§2) Legend for following table: A=ERRα Degradation Dmax (Estimated) MCF-7 cells; B=ERRα Degradation DC50 (Estimated) MCF-7 cells; C=ERRα Degradation Dmax (Estimated) ST-486 cells; D=ERRα Degradation DC50 (Estimated) ST-486 cells

ERRα [2] = molecular target: T1, ERRα; assay: ERRα degradation in ST-486 cells; assay type: cell-based; set-up: degration of ERRα in either MCF-7 cells or ST-486 cells; endogenous in cells; host or cells: ST-486; settings: ST486, column C, read-out: ERRα Degradation Dmax (Estimated) ST-486 cells
Protocol: as §1, §2

COc1cc(/C=C2\SC(=O)N(CCOCCC(=O)N[C@H](C(=O)N3CC(O)C[C@H]3C(=O)NCc3ccc(-c4scnc4C)cc3)C(C)(C)C)C2=O)ccc1Oc1ccc(C#N)cc1C(F)(F)F (stereo partly drawn) [ARV N000020]
Dmax (ERRα [1]): 98%

COc1cc(/C=C2\SC(=O)N(CCOCCOCCOCCOc3cc(-c4scnc4C)ccc3CNC(=O)[C@@H]3C[C@@H](O)CN3C(=O)[C@H](C(C)C)N3Cc4ccccc4C3=O)C2=O)ccc1Oc1ccc(C#N)cc1C(F)(F)F [ARV N000198]
Dmax (ERRα [1]): 90%

COc1cc(/C=C2\SC(=O)N(CCOCCOCCCOCCOCCOc3cc(-c4scnc4C)ccc3CNC(=O)[C@@H]3C[C@@H](O)CN3C(=O)[C@H](C(C)C)N3Cc4ccccc4C3=O)C2=O)ccc1Oc1ccc(C#N)cc1C(F)(F)F [ARV N000199]
Dmax (ERRα [1]): 90%

COc1cc(/C=C2\SC(=O)N(CCOCCOCCCCOCCCCOCCOCC(=O)N[C@H](C(=O)N3C[C@H](O)C[C@H]3C(=O)NCc3ccc(-c4scnc4C)cc3)C(C)(C)C)C2=O)ccc1Oc1ccc(C#N)cc1C(F)(F)F [ARV N000200]
Dmax (ERRα [1]): 80%

COc1cc(/C=C2\SC(=O)N(CCOCCOCCCCCOCCCCCOCCOCC(=O)N[C@H](C(=O)N3C[C@H](O)C[C@H]3C(=O)NCc3ccc(-c4scnc4C)cc3)C(C)(C)C)C2=O)ccc1Oc1ccc(C#N)cc1C(F)(F)F [ARV N000201]
Dmax (ERRα [1]): 90%

COc1cc(/C=C2\SC(=O)N(CCOCCC(=O)N[C@H](C(=O)N3C[C@@H](O)C[C@H]3C(=O)NCc3ccc(-c4scnc4C)cc3)C(C)(C)C)C2=O)ccc1Oc1ccc(C#N)cc1C(F)(F)F [ARV N000203]
Dmax (ERRα [1]): 40%

COc1cc(/C=C2\SC(=O)N(CCOCCOCCOCCOCCOc3cc(-c4scnc4C)ccc3CNC(=O)[C@@H]3C[C@@H](O)CN3C(=O)[C@H](C(C)C)N3Cc4ccccc4C3=O)C2=O)ccc1Oc1ccc(C#N)cc1C(F)(F)F [ARV N000219]
Dmax (ERRα [1]): 98%

COc1cc(/C=C2\SC(=O)N(CCOCCOCCOCCOCCOCCOc3cc(-c4scnc4C)ccc3CNC(=O)[C@@H]3C[C@@H](O)CN3C(=O)[C@H](C(C)C)N3Cc4ccccc4C3=O)C2=O)ccc1Oc1ccc(C#N)cc1C(F)(F)F [ARV N000220]
Dmax (ERRα [1]): 85%

COc1cc(/C=C2\SC(=O)N(CCOCCCOCCCOc3cc(-c4scnc4C)ccc3CNC(=O)[C@@H]3C[C@@H](O)CN3C(=O)[C@H](C(C)C)N3Cc4ccccc4C3=O)C2=O)ccc1Oc1ccc(C#N)cc1C(F)(F)F [ARV N000222]
Dmax (ERRα [1]): 90%

COc1cc(/C=C2\SC(=O)N(CCOCCOCCOCCOCCOCC(=O)N[C@H](C(=O)N3C[C@H](O)C[C@H]3C(=O)NCc3ccc(-c4scnc4C)cc3)C(C)(C)C)C2=O)ccc1Oc1ccc(C#N)cc1C(F)(F)F [ARV N000223]
Dmax (ERRα [1]): 80%

COc1cc(/C=C2\SC(=O)N(CCCCCOCCOCCC(=O)N[C@H](C(=O)N3CC(O)C[C@H]3C(=O)NCc3ccc(-c4scnc4C)cc3)C(C)(C)C)C2=O)ccc1Oc1ccc(C#N)cc1C(F)(F)F (stereo partly drawn) [ARV N000224]
Dmax (ERRα [1]): 90%

COc1cc(/C=C2\SC(=O)N(CCOCCOCCCCCOCCOCCOc3cc(-c4scnc4C)ccc3CNC(=O)[C@@H]3C[C@@H](O)CN3C(=O)[C@H](C(C)C)N3Cc4ccccc4C3=O)C2=O)ccc1Oc1ccc(C#N)cc1C(F)(F)F [ARV N000231]
Dmax (ERRα [1]): 98%

COc1cc(/C=C2\SC(=O)N(CCOCCOCCCCCOCCCCCOCCOCCOc3cc(-c4scnc4C)ccc3CNC(=O)[C@@H]3C[C@@H](O)CN3C(=O)[C@H](C(C)C)N3Cc4ccccc4C3=O)C2=O)ccc1Oc1ccc(C#N)cc1C(F)(F)F [ARV N000232]
Dmax (ERRα [1]): 60%

COc1cc(/C=C2\SC(=O)N(CCCCOCCCCOCCCCOc3cc(-c4scnc4C)ccc3CNC(=O)[C@@H]3C[C@@H](O)CN3C(=O)[C@H](C(C)C)N3Cc4ccccc4C3=O)C2=O)ccc1Oc1ccc(C#N)cc1C(F)(F)F [ARV N000233]
Dmax (ERRα [1]): 60%

COc1cc(/C=C2\SC(=O)N(CCOCCOCCOCCOCCOCCOCC(=O)N[C@H](C(=O)N3C[C@H](O)C[C@H]3C(=O)NCc3ccc(-c4scnc4C)cc3)C(C)(C)C)C2=O)ccc1Oc1ccc(C#N)cc1C(F)(F)F [ARV N000234]
Dmax (ERRα [1]): 98%

COc1cc(/C=C2\SC(=O)N(CCOCCOCCCOCCOCCOCC(=O)N[C@H](C(=O)N3C[C@H](O)C[C@H]3C(=O)NCc3ccc(-c4scnc4C)cc3)C(C)(C)C)C2=O)ccc1Oc1ccc(C#N)cc1C(F)(F)F [ARV N000235]
Dmax (ERRα [1]): 95%

COc1cc(/C=C2\SC(=O)N(CCCCOCCOCCOCC(=O)N[C@H](C(=O)N3C[C@H](O)C[C@H]3C(=O)NCc3ccc(-c4scnc4C)cc3)C(C)(C)C)C2=O)ccc1Oc1ccc(C#N)cc1C(F)(F)F [ARV N000236]
Dmax (ERRα [2]): 90%

COc1cc(/C=C2\SC(=O)N(CCOCCOCCCCOCCOCCOCC(=O)N[C@H](C(=O)N3C[C@H](O)C[C@H]3C(=O)NCc3ccc(-c4scnc4C)cc3)C(C)(C)C)C2=O)ccc1Oc1ccc(C#N)cc1C(F)(F)F [ARV N000244]
Dmax (ERRα [2]): 80%

COc1cc(/C=C2\SC(=O)N(CCCCOCCCCOCCCCCCC(=O)N[C@H](C(=O)N3C[C@H](O)C[C@H]3C(=O)NCc3ccc(-c4scnc4C)cc3)C(C)(C)C)C2=O)ccc1Oc1ccc(C#N)cc1C(F)(F)F [ARV N000245]
Dmax (ERRα [2]): 40%

COc1cc(/C=C2\SC(=O)N(CCCCOCCCCOCCCCCC(=O)N[C@H](C(=O)N3C[C@H](O)C[C@H]3C(=O)NCc3ccc(-c4scnc4C)cc3)C(C)(C)C)C2=O)ccc1Oc1ccc(C#N)cc1C(F)(F)F [ARV N000246]
Dmax (ERRα [2]): 90%

COc1cc(/C=C2\SC(=O)N(CCOCCOCCCCOCCOCCOc3cc(-c4scnc4C)ccc3CNC(=O)[C@@H]3C[C@@H](O)CN3C(=O)[C@H](C(C)C)N3Cc4ccccc4C3=O)C2=O)ccc1Oc1ccc(C#N)cc1C(F)(F)F [ARV N000265]
Dmax (ERRα [2]): 80%

COc1cc(/C=C2\SC(=O)N(CCOCCOCCCCOCCCCOCCOCCOc3cc(-c4scnc4C)ccc3CNC(=O)[C@@H]3C[C@@H](O)CN3C(=O)[C@H](C(C)C)N3Cc4ccccc4C3=O)C2=O)ccc1Oc1ccc(C#N)cc1C(F)(F)F [ARV N000266]
Dmax (ERRα [2]): 50%

COc1cc(/C=C2\SC(=O)N(CCOCCOCCCCCOCCOCCOCC(=O)N[C@H](C(=O)N3C[C@H](O)C[C@H]3C(=O)NCc3ccc(-c4scnc4C)cc3)C(C)(C)C)C2=O)ccc1Oc1ccc(C#N)cc1C(F)(F)F [ARV N000267]
Dmax (ERRα [2]): 80%

COc1cc(/C=C2\SC(=O)N(Cc3ccccc3CC(=O)N[C@H](C(=O)N3C[C@H](O)C[C@H]3C(=O)NCc3ccc(-c4scnc4C)cc3)C(C)(C)C)C2=O)ccc1Oc1ccc(C#N)cc1C(F)(F)F [ARV N000381]
Dmax (ERRα [2]): 98%

COc1cc(/C=C2\SC(=O)N(Cc3cccc(CC(=O)N[C@H](C(=O)N4C[C@H](O)C[C@H]4C(=O)NCc4ccc(-c5scnc5C)cc4)C(C)(C)C)c3)C2=O)ccc1Oc1ccc(C#N)cc1C(F)(F)F [ARV N000382]
Dmax (ERRα [2]): 98%

COc1cc(/C=C2\SC(=O)N(CCOCCOCCOCC(=O)N[C@H](C(=O)N3C[C@H](O)C[C@H]3C(=O)NCc3ccc(-c4scnc4C)cc3)C(C)(C)C)C2=O)ccc1Oc1ccccc1C(F)(F)F [ARV N000383]
Dmax (ERRα [2]): 98%

COc1cc(/C=C2\SC(=O)N(Cc3ccc(CC(=O)N[C@H](C(=O)N4C[C@H](O)C[C@H]4C(=O)NCc4ccc(-c5scnc5C)cc4)C(C)(C)C)cc3)C2=O)ccc1Oc1ccc(C#N)cc1C(F)(F)F [ARV N000413]
Dmax (ERRα [2]): 98%
